What was measured:
[1] = system: normal human dermal fibroblast cultures; test: In vitro measurement of the production of hyaluronic acid in fibroblast cultures; type: cell-based; conditions: 5 days of incubation; for effect on the amount of extracellular hyaluronic acid (in words): 0.01% and 0.1% (w/v)
Method: B—In Vitro Measurement of the Effect of the Polyol-Glycosides According to the Invention on the Production of Hyaluronic Acid
To confirm the moisturizing activity of the polyol-glycosides according to the invention, the effect of these products on the amount of hyaluronic acid was measured. It is in fact known that hyaluronic acid is a major non-sulfated glycosaminoglycan which plays an essential role in moisturizing the skin, by means of its ability to attach up to 1000 times its weight in water.
The amount of hyaluronic acid is measured in normal human dermal fibroblast cultures.
The cells are incubated for 5 days in the presence of the test products solubilized in the incubation medium.
At the end of this incubation, the extracellular media, into which the hyaluronic acid is secreted, are removed.
The hyaluronic acid is stained with a specific dye, STAINS ALL ((1-ethyl-2-[3-(1-ethylnaphtho[1,2-d]thiazolin-2-ylidene)-2-methylpropenyl]naphtho[1,2-d]thiazolium) bromide, provided by Sigma), which interacts with the hyaluronic acid to produce a change of absorption spectrum between 620 and 660 nm, observed by means of a spectrophotometer. A standard range of hyaluronic acid is effected in parallel.
The polyols and the polyol-glucosides are tested in aqueous solution at 0.01% and 0.1% (w/v).
D0: seeding of the fibroblasts (24-well culture plates, 15 300 cells/well);
D3: incubation of the products tested, diluted in the fibroblast incubation medium;
D8: removal of the fibroblast incubation media, assaying of the hyaluronic acid.
At the end of the 5 days of incubation in the presence of the products, the incubation media are removed and incubated in the presence of STAINS ALL. The colorimetric reaction is visualized by adding water.
The quantification is carried out by spectrophotometry for a wavelength of 630 nm.
A standard range of hyaluronic acid (0 to 12.5 μg/ml) is effected in parallel.
The results are expressed in μg/ml of extracellular hyaluronic acid.
The results which were obtained, expressed as percentage increase in the amount of extracellular hyaluronic acid relative to the control group, are reported in the following table: […]

[2] = system: skin (epidermis) in a normal volunteer; test: In vivo measurement of the moisturization of the skin with Hydrascan; parameters: species or system human; conditions: for Degree of moisturization of the skin measured with Hydrascan, Cycle 1: stratum corneum + superficial epidermis / Degree of moisturization of the skin measured with Hydrascan, Cycle 2: superficial + middle epidermis / Degree of moisturization of the skin measured with Hydrascan, Cycle 3: entire epidermis: percentage increase relative to placebo zone, topical 20 mg/cm2, 8 h after application, mean of six volunteers; for Degree of moisturization of the skin measured with Hydrascan, Cycle 1: stratum corneum + superficial epidermis / Degree of moisturization of the skin measured with Hydrascan, Cycle 2: superficial + middle epidermis / Degree of moisturization of the skin measured with Hydrascan, Cycle 3: entire epidermis / effect on the degree of moisturization of the epidermis (in words): 3% in cream gel; for effect on the degree of moisturization of the epidermis (in words): 8 h after application
Method: A-In Vivo Measurement of the Moisturization of the Skin in a Normal Volunteer by Means of […] effect on the degree of moisturization of the skin of various polyol-glycosides according to the invention, of glyceryl glucoside and of various polyols was measured and compared in humans. […] This device comprises a micro-effusimeter connected to a flexible sensor and makes it possible to produce a thermal wave which propagates within the epidermis, and to register the variation in temperature during the pulse. […] 5% (weight/volume) of Lanol® 99 (isononyl isononanoate); 0.5% (weight/volume) of […]® HB (phenoxy-ethanol, methyl-, ethyl-, propyl-, butylparaben). A cream gel having the same composition but containing no test product is used as a placebo. The study is carried out on three groups of six volunteers, as a double-blind study, i.e. neither the experimenter nor the volunteer knows the identity of the test product. The following four skin zones are defined on the forearms of each volunteer: The products are applied topically at a rate of 20 mg/cm^2, the measurements being carried out 8 h after application. […] The degree of moisturization is measured by means of […]®, on each skin zone defined above, the values obtained for each of the three cycles being recorded and expressed as percentage increase in moisturization of the skin relative to the zone treated with the placebo.

human skin explant = test: In vitro measurement of the synthesis of epidermal ceramides in human skin explant model; type: cell-based; conditions: for effect on the neosynthesis of ceramides 1 and 2 (in words): 24 hours on human skin explants; for percentage increase in the amount of ceramide 1 relative to the control group / percentage increase in the amount of ceramide 2 relative to the control group: topical 3% in cream gel (EGF 10 ng/ml in culture medium), 24 hours, 14C-acetate labeling
Method: C—In Vitro Measurement of the Xylityl Glucoside According to the Invention on the Synthesis of Epidermal Ceramides
The study is carried out in vitro in a human skin explant model. The products, formulated at 3% in a cream gel, are applied to the surface of the skin explants for 24 hours. The neosynthesis of the epidermal lipids is studied by radioactive labeling (carbon 14-labeled acetate) of the neosynthesized lipids, followed by thin layer chromatography to separate the various types of lipids and in particular the ceramides.
The xylityl glucoside according to example 1 of the invention, formulated at 3% in a cream gel comprising 2% of Sepigel® 305, 5% of Lanol 99, and qs of water.
Epidermal growth factor (EGF), known to increase the synthesis of ceramides, which constitutes a reference molecule for this test. The EGF is tested at 10 ng/ml in the skin explant culture medium.
A commercially available formulation containing lactic acid, which constitutes a reference for the test, lactic acid being known to increase the synthesis of ceramides.
The study is carried out on disks of human skin originating from cosmetic surgery (abdominoplasty, person). Disks 8 mm in diameter are produced using a hole punch and deposited onto culture inserts placed in culture wells containing an appropriate nutritive medium (MEM/M199 medium (¾, ¼, v/v) supplemented with penicillin (50 IU/ml, streptomycin (50 μg/ml), sodium bicarbonate (0.2% w/v), serum (2% v/v) and carbon 14-labeled acetate (1 μCi/ml)).
The products are tested by topical application (except for the EGF) for 24 hours.
At the end of the 24 hours of incubation, the skin explants are rinsed with phosphate buffered saline. For each disk of skin, the dermis is dissociated from the epidermis by controlled heat shock (1 min at 70° C.). The epidermal lipids are extracted by a partition between an organic phase (methanol/chloroform (1:2)) and an aqueous phase (0.25 M potassium chloride). The organic phase is then evaporated under vacuum and the residue is taken up in a chloroform/methanol (2:1) mixture.
The various epidermal lipids are then separated by thin layer chromatography (silica 60): chloroform/acetone/methanol (38:2:10); chloroform/acetone/methanol (40:5:5); chloroform/ethyl acetate/diethyl ether/methanol (36:10:3:1). The radioactivity of the fractions thus separated is counted with a radioactivity analyzer (Storm, Amersham).
The results are expressed as % variation relative to the control group.

skin = test: Evaluation on the skin of acute skin irritation (Primary Cutaneous Irritation index); type: in vivo; conditions: for PCI index: Primary Cutaneous Irritation index; for Irritation classification: scale of the protocol in Journal Officiel de la République Francaise of Feb. 21, 1982
Method: The skin tolerance of the various polyol-glycosides was evaluated by means of a study of “evaluation on the skin of acute skin irritation”, carried out by an independent pharmaceutical and cosmetic consultancy-expertise company.
The Primary Cutaneous Irritation (PCI) index measurements, carried out according to the same protocol, are contained in the following table:
Each compound studied is classified, in view of the results obtained under the selected experimental conditions, nonirritant for the skin, with reference to the scale proposed in the protocol described in the Journal Officiel de la République Francaise [Official Journal of the French Republic] of Feb. 21, 1982.

Compound | effect on the amount of extracellular hyaluronic acid (in words) [1] | percentage increase in the amount of extracellular hyaluronic acid relative to the control group ([1]; concentration 0.01% (w/v)) | percentage increase in the amount of extracellular hyaluronic acid relative to the control group ([1]; concentration 0.1% (w/v)) | Degree of moisturization of the skin measured with Hydrascan, Cycle 1: stratum corneum + superficial epidermis [2] | Degree of moisturization of the skin measured with Hydrascan, Cycle 2: superficial + middle epidermis [2] | Degree of moisturization of the skin measured with Hydrascan, Cycle 3: entire epidermis [2] | effect on the neosynthesis of ceramides 1 and 2 (in words) (human skin explant) | effect on the degree of moisturization of the epidermis (in words) [2] | percentage increase in the amount of ceramide 1 relative to the control group (human skin explant) | percentage increase in the amount of ceramide 2 relative to the control group (human skin explant) | PCI index (skin) | Irritation classification (skin) | increase in degree of moisturization greater than that obtained with glycerol ([2]; difference to glycerol across the epidermal layers)
OC[C@@H](O)[C@@H](O)CO [Erythritol, erythritol] | no effect | <10% | <10% | +9% | +9% | +9% | – | – | – | – | – | – | –
OCC(O)CO [Glycerol, glycerol] | no effect | – | – | – | – | – | not observed | – | – | – | – | – | –
OC[C@@H](O)[C@H](O)[C@@H](O)CO [Xylitol, xylitol] | no effect | <10% | <10% | <5% | <5% | <5% | – | no effect | – | – | – | – | –
O=C[C@H](O)[C@@H](O)[C@H](O)CO [Xylose, xylose] | – | – | – | <5% | <5% | <5% | – | no moisturizing effectiveness | – | – | – | – | –
EGF: Epidermal growth factor, known to increase the synthesis of ceramides, reference molecule for this test | – | – | – | – | – | – | act, but less effectively | – | 166.1% | 152.3% | – | – | –
Erythrityl Glucoside [Example 2] | – | +64% | <10% | +18% | +11% | +12% | – | – | – | – | 0 | Nonirritant | –
Glyceryl Glucoside [Comparative example] | does not increase | <10% | <10% | <5% | <5% | <5% | – | – | – | – | 0 | Nonirritant | –
Xylityl Glucoside [Example 1] | increase | +158% | +161% | +28% | +33% | +30% | significantly increases | very substantially increases | 295.7% | 236.5% | 0 | Nonirritant | 14 to 20%
